From patent US6329363A, “Cephalosporin antibiotics” (Eli Lilly and Company, priority 1998, dated 2001)
In brackets after ≈: the same amount, converted by molar mass.

Key:
S.aureus ATCC 29213 = assay: MIC, in vitro activity vs. S.aureus ATCC 29213; type: cell-based, Staphylococcus aureus; set-up: unit not given beside the values; details: Incubated at 37° C. overnight
Procedure: (§1) Table 2 summarizes the minimal inhibitory concentrations (MIC's) at which illustrative formula I compounds and cephalothin inhibit certain microorganisms associated with mastitis, such as Staphylococcus aureus 10092 (Newbould strain).
(§2) ^a Incubated at 37° C. overnight

S.aureus 174 C = assay: MIC, in vitro activity vs. S.aureus 174 C; type: cell-based, Staphylococcus aureus; set-up: unit not given beside the values; details: Incubated at 37° C. overnight
Procedure: as §1, §2

S.aureus F1C = assay: MIC, in vitro activity vs. S.aureus F1C; type: cell-based, Staphylococcus aureus; set-up: unit not given beside the values; details: Incubated at 37° C. overnight
Procedure: as §1, §2

[1] = test system: Streptococcus uberis 150 L; assay: MIC, in vitro activity vs. Streptococcus uberis 150 L; type: cell-based; set-up: unit not given beside the values; details: Incubated at 37° C. overnight
Procedure: as §1, §2

[2] = test system: Streptococcus uberis 166 L; assay: MIC, in vitro activity vs. Streptococcus uberis 166 L; type: cell-based; set-up: unit not given beside the values; details: Incubated at 37° C. overnight
Procedure: as §1, §2

Streptococcus agalactiae = assay: MIC, in vitro activity vs. Streptococcus agalactiae; type: cell-based; set-up: unit not given here; details: Incubated at 37° C. overnight
Procedure: as §1, §2

[3] = test system: pasteurella multocida 108E (bovine); assay: MIC against Gram-negative organisms: pasteurella multocida 108E (bovine); type: cell-based; details: Incubated at 37° C. overnight; unit assumed
Procedure: (§3) The formula I compounds are also active against certain Gram-negative species.
as §2

[4] = test system: pasteurella multocida ATCC 12945; assay: MIC against Gram-negative organisms: pasteurella multocida ATCC 12945; type: cell-based; details: Incubated at 37° C. overnight; unit assumed
Procedure: as §3, §2

[5] = test system: pasteurella multocida 1051 (swine); assay: MIC against Gram-negative organisms: pasteurella multocida 1051 (swine); type: cell-based; details: Incubated at 37° C. overnight; unit assumed
Procedure: as §3, §2

[6] = test system: pasteurella multocida 10,102 (bovine); assay: MIC against Gram-negative organisms: pasteurella multocida 10,102 (bovine); type: cell-based; details: Incubated at 37° C. overnight; unit assumed
Procedure: as §3, §2

[7] = test system: Pasteurella haemolytica 114F (bovine); assay: MIC against Gram-negative organisms: Pasteurella haemolytica 114F (bovine); type: cell-based; details: Incubated at 37° C. overnight; unit assumed
Procedure: as §3, §2

[8] = test system: Pasteurella haemolytica 128K (bovine); assay: MIC against Gram-negative organisms: Pasteurella haemolytica 128K (bovine); type: cell-based; details: Incubated at 37° C. overnight; unit assumed
Procedure: as §3, §2

[9] = test system: Pasteurella haemolytica 129R (bovine); assay: MIC against Gram-negative organisms: Pasteurella haemolytica 129R (bovine); type: cell-based; details: Incubated at 37° C. overnight; unit assumed
Procedure: as §3, §2

Salmonella typhimurium = assay: MIC against Gram-negative organisms: Salmonella typhimurium; type: cell-based; details: Incubated at 37° C. overnight; unit assumed
Procedure: as §3, §2

Escherichia coli = assay: MIC against Gram-negative organisms: Escherichia coli; type: cell-based; details: Incubated at 37° C. overnight; unit assumed
Procedure: as §3, §2

[10] = test system: Staphylococcus aureus 10092 (Newbould strain); assay: MIC, in vitro activity vs. S.aureus 10092; type: cell-based; set-up: unit not given beside the values; details: Incubated at 37° C. overnight
Procedure: as §1, §2

[11] = test system: Strepcococcus dysgalactiae; assay: MIC, in vitro activity vs. Streptococcus dysgalactiae; type: cell-based; set-up: unit not given here; details: Incubated at 37° C. overnight
Procedure: as §1, §2

[12] = test system: Staphylococcus aureus 10092 (Newbould); assay: Efficacy in induced Staphylococcus aureus mastitis model in lactating goats; type: in vivo; details: 8 halves per compound, 2 consecutive milkings 12 hours apart, approximately 25 mg/5 mL dose in peanut oil, from 36 hours post-challenge
Excerpt: Sixteen lactating goats were selected based on the absence of Staphylococcus aureus in pre-challenge milk cultures. Maintenance ration was provided to the animals throughout the study. The goats were milked twice each day using a portable goat milker.
Milk samples were collected during the morning milking. One day prior to challenge, milk culture samples were collected from each half of the test animals to determine if there was a pre-existing infection. Additionally, a sample was collected from each half for Somatic Cell Count (SCC) determination. A milk culture sample and a sample for SCC were collected from each half 24 hours post-challenge and on Days +4 to +6, +8, +11, +13, and +15.
Udder scoring was performed during each milking wing table:
General health observations and body temperature were recorded once a day following milking during the challenge and treatment periods.
Milk samples were submitted for analysis for SCC using an electronic somatic cell counting system.
Milk culture samples were assayed for bacterial culture by plating 1.0 mL and 0.1 mL of the milk sample directly onto duplicate blood agar plates. Additionally, dilutions 10^-1 of the milk sample were plated. Plates were incubated overnight at 37° C.
Staphylococcus aureus 10092 (Newbould) was used as the challenge strain. The challenge culture was grown in Tryptic Soy Broth (TSB) from a lyovial stock overnight (16 hours) at 37° C. TSB (100 mL) was inoculated with 1 mL of the overnight culture and incubated at 37° C. with shaking for 4 hours. The culture was centrifuged at 9000 rpm for 10 minutes at 10° C.; supernatant was removed and the pellet was resuspended in phosphate buffered saline (PBS). Optimum O.D. reading at 650 nm was approximately 0.035. A 10-fold dilution series was prepared with saline to determine the CFU/mL, plating 10^-5, 10^-6, and 10^-7 dilutions onto duplicate blood agar plates. The 10^-7 dilution (approximately 10 CFU/mL) was used for the challenge material, yielding a challenge of 50 CFU/half with a 5-mL infusion.
Sixteen goats were used for the trial. During a one day pre-challenge period, milk samples were collected and temperatures were taken during the morning milking. Milk/udder evaluations were documented during the morning and afternoon milkings.
Staphylococcus aureus 10092 was infused into both halves in each of the goats. The goats were challenged following the morning milking and milked in the afternoon on the day of challenge. The challenge inoculum volume was 5 mL/half containing approximately 50 CFU S. aureus.
For the 24 hr post-challenge period milk samples were collected during the morning milking, and milk/udder evaluations made during the morning and afternoon milking.
Treatment was started at 36 hours post-challenge. Milk samples were collected for culture and SCC 24 hours post-challenge, prior to the morning milking, and the treatment period started following the afternoon milking.
Eight halves (4 goats) each were treated for 2 consecutive milkings 12 hours apart, following milking. Each designated compound was formulated in peanut oil with […] of compound per 5 g of formulation to give approximately 25 mg/5 mL dose.
Following treatment, the goats were milked and observed for 15 days. Milk samples were collected on Days +4 to +6, +8, +11, +13, and +15 to determine if the infection had cleared.
Establishment of mastitis was determined by bacterial culturing, severity of udder scoring, somatic cell count results, and body temperature.
On Days +2 to +6, milk samples were collected for a calorimetric assay to determine whether the antibiotic was still present in the milk.

Row | SMILES | MIC vs. S.aureus ATCC 29213 (S.aureus ATCC 29213) | MIC vs. S.aureus 174 C (S.aureus 174 C) | MIC vs. S.aureus F1C (S.aureus F1C) | MIC vs. Streptococcus uberis 150 L [1] | MIC vs. Streptococcus uberis 166 L [2] | MIC vs. Streptococcus agalactiae (Streptococcus agalactiae) | MIC, pasteurella multocida 108E (bovine) [3] | MIC, pasteurella multocida ATCC 12945 [4] | MIC, pasteurella multocida 1051 (swine) [5] | MIC, pasteurella multocida 10,102 (bovine) [6] | MIC, Pasteurella haemolytica 114F (bovine) [7] | MIC, Pasteurella haemolytica 128K (bovine) [8] | MIC, Pasteurella haemolytica 129R (bovine) [9] | MIC, Salmonella typhimurium (Salmonella typhimurium) | MIC, Escherichia coli (Escherichia coli) | MIC vs. S.aureus 10092 [10] | MIC vs. Strepcococcus dysgalactiae [11] | % Bacteriologic Cures [12]
1 | CC(=O)OCC1=C(C(=O)O)N2C(=O)[C@@H](NC(=O)Cc3cccs3)[C@H]2SC1 [Cephalothin, reference compound] | 0.25 | 0.25 | 0.25 | 0.125 | 0.0625 | 0.125 | 0.5 mg/L (≈ 1.26 µM) | 0.25 mg/L (≈ 0.631 µM) | 0.25 mg/L (≈ 0.631 µM) | 0.5 mg/L (≈ 1.26 µM) | 1 mg/L (≈ 2.52 µM) | 0.5 mg/L (≈ 1.26 µM) | 1 mg/L (≈ 2.52 µM) | 4 mg/L (≈ 10.1 µM) | 8 mg/L (≈ 20.2 µM) | – | – | –
2 | Cc1nnc(SCC2=C(C(=O)O)N3C(=O)[C@@H](NC(=O)CSc4ccc(C(F)(F)F)cc4)[C@H]3SC2)s1 [Compound 2] | 0.25 | 0.125 | 0.25 | 0.125 | 0.125 | 0.125 | – | – | – | – | – | – | – | – | – | 0.125 | 0.0625 | 83%
3 | Cc1nnc(SCC2=C(C(=O)O)N3C(=O)[C@@H](NC(=O)CSc4c(F)c(F)c(F)c(F)c4F)[C@H]3SC2)s1 [Compound 3] | 0.125 | 0.0625 | 0.125 | – | 0.0156 | 0.0156 | – | – | – | – | – | – | – | – | – | 0.625 | 0.0156 | 50%
4 | Cc1nnc(SCC2=C(C(=O)O)N3C(=O)[C@@H](NC(=O)CSc4ccc(S(=O)(=O)C(F)(F)F)cc4)[C@H]3SC2)s1 [Compound 4] | 0.0625 | 0.0312 | 0.125 | – | – | 0.0156 | – | – | – | – | – | – | – | – | – | 0.0312 | – | 71%
5 | Cc1nnc(SCC2=C(C(=O)O)N3C(=O)[C@@H](NC(=O)CSc4c(F)c(F)c(C(F)(F)F)c(F)c4F)[C@H]3SC2)s1 [Compound 5] | 0.0625 | 0.0625 | 0.125 | 0.0156 | – | 0.0156 | – | – | – | – | – | – | – | – | – | 0.0625 | 0.0625 | 33%
